Patent US20210102215A1, “TREATMENT AND PREVENTION OF VIRAL INFECTION” (priority 2016, published 2021)
d = 2'-deoxy (DNA); r = 2'-OH (RNA)

How the values were obtained:
[1] = test system: Bna1 promoter; details: cited from earlier work
[2] = test system: HCVpp; assay type: cell-based, hepatitis C virus; details: cells treated with Rev-erbα agonists (FIG. 3c, 3d)
[3] = test system: HIV virus (NL4.3); assay: HIV (NL4.3) infection of TZM-bl cells, HIV promoter luciferase assay; details: for HIV infection (HIV promoter activity): increasing dose, 24 h (FIGS. 11a, 11b)
[4] = test system: pseudoparticles expressing viral glycoproteins (HCV, VSV, Lassa, Flu, MLC, Ebola); assay type: cell-based
[5] = test system: HCV sub-genomic replicon; assay: HCV genome replication in a synthetic sub-genomic replicon line; details: dose-dependent (FIG. 4a)
[6] = test system: HCV infected Huh-7 cells; assay: Viral RNA load in chronic HCV infected cells by qPCR; assay type: cell-based, hepatitis C virus; details: increasing dose, 24 hours, qPCR (FIG. 5a)
Method: To assess the ability of REV-ERB activators to limit HCV RNA replication, HCV infected Huh-7 cells (verified by NSSA staining) were treated with GSK4112 or SR9009 at a range of doses. […], HCV infection levels were quantified by reverse transcriptase polymerase chain measurement of viral RNA (see FIG. 4b).
Huh-7 cells were treated with either REV-ERBα agonist GSK4112 or SR9009 for 16 hour at a range of doses. Medium containing the drug was then removed following viral inoculation and infectivity assessed 24 hours later. To evaluate the efficacy of these drugs in viral replication, chronic infected HCV or HBV cells were treated with REV-ERBα activators at a range of concentrations and viral load determined by real-time qPCR 24 hours later.
(§1) The ability of REV-ERBα activators to reduce viral burden of chronic HCV infected cells was then tested. […] An identical assay was performed in two chronic HBV infected cell lines—2215 and AD38.
HCVcc SA13/JFH-1 infected Huh-7 cells were also treated with increasing concentrations of GSK2667 for 24 h and viral RNA levels measured after 24 h.

[7] = test system: Bmal1 mRNA; assay: Bmal1 mRNA levels by qPCR in hepatocytes / Huh-7 cells; details: qPCR (FIG. 3a)
[8] = test system: HCV sub-genomic replicons genotypes 1b, 2a, 3a; assay: HCV sub-genomic luciferase replicons genotypes 1-3 in Huh-7.5-SEC14L2 cells; details: genotypes 1-3 replicons, increasing concentrations, 24 h (FIGS. 10c-e)
[9] = test system: HCV genotype 3a S52 replicon; details: REV-ERB agonists 20 μM with increasing DAA, 48 h (FIGS. 10f, 10g)
[10] = test system: Zika virus; details: Huh-7, infectivity after 24 h and 48 h (FIG. 12)
[11] = test system: chronic HBV infected cell lines 2215 and AD38; assay: HBV RNA levels in chronic HBV infected cell lines; assay type: cell-based, hepatitis B virus; details: 2215 and AD38 cells, 48 hours (FIG. 5c)
Method: Huh-7 cells were treated with either REV-ERBα agonist GSK4112 or SR9009 for 16 hour at a range of doses. Medium containing the drug was then removed following viral inoculation and infectivity assessed 24 hours later.
as §1

Compound	Effect on the anti-viral activity (HCV entry) of REV-ERBα agonists GSK4112/SR9009 [2]	HIV infection (HIV promoter activity) [3]	Replication of the HCV genome [5]	Viral load (HCV genomic RNA) [6]	Bmal1 mRNA levels [7]	Combined effect of REV-ERB agonist and DAA on HCV genotype 3 replication [9]	also measured
CS(=O)(=O)N(Cc1ccco1)CC(O)Cn1c2ccccc2c2ccccc21 (stereo not shown) [KL001]	–	–	–	–	–	–	Bmal1 promoter activity [1]: inhibit Bna1 promoter activity
CCOC(=O)C1Cc2ccccc2CN1C(=O)c1ccc(SC)s1 (stereo not shown) [SR8278]	rescued	promotes HIV infection	–	–	–	–	–
Rev-erbα siRNA: rev-erba siRNA duplex from Life technologies, SEQ ID NO 5 and 6, two-base DNA overhang (chain 1 GGUGUCUGAAGAAUGAGAATT; chain 2 UUCUCAUUCUUCAGACACCTT; sugars from the 5' end r19 d2, backbone and methylation of C not given here)	rescued	–	–	–	–	–	HIV promoter activity after siRNA knockdown ([3]; 48 h post-siRNA, HIV 24 h (FIG. 11c)): increased HIV promoter activity
CC(C)(C)OC(=O)CN(Cc1ccc(Cl)cc1)Cc1ccc([N+](=O)[O-])s1 [GSK4112]	–	inhibit HIV infection	inhibited	dose-dependent reduction in viral load	decreased Bmal1 mRNA levels	–	Entry of pseudoparticles of multiple viruses [4]: inhibitory effect on entry was replicated across multiple viruses including lassa and ebola
CCOC(=O)N1CCC(CN(Cc2ccc(Cl)cc2)Cc2ccc([N+](=O)[O-])s2)C1 (stereo not shown) [SR9009]	–	inhibit HIV infection	inhibited	dose-dependent reduction in viral load	decreased Bmal1 mRNA levels	additive effects	Antiviral activity against HCV RNA replication across genotypes [8]: pan-genomic; Zika infection [10]: inhibit Zika infection; HBV RNA levels [11]: significantly reduced HBV RNA levels
CC(C)OC(=O)[C@H](C)N[P@](=O)(OC[C@H]1O[C@@H](n2ccc(=O)[nH]c2=O)[C@](C)(F)[C@@H]1O)Oc1ccccc1 [Sofosbuvir]	–	–	–	–	–	additive effects	–
